IC50 and viability, T/C data for eight compounds are collected here from PubChem BioAssay AID1919009 (Molecular Pharmacology Branch, DTP, NCI, 2023).

Values joined by “and” are separate entries in the source; they are usually repeats but may differ in a detail not shown here. Identical values can stand only once. Some results are limits rather than exact numbers.

The experiment concerns K24384-001-R-PDC complex spheroid growth. Briefly: Anticancer human tumor K24384-001-R-PDC patient-derived pancreatic adenocarcinoma cell line growth inhibition [AhR]. The following applies: for viability, T/C: stronger effect = lower value. A digest of the protocol: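 Spheroids combined tumor cells with HUVEC endothelial cells and human MSCs as stroma. AhR antagonists were paired with standard or investigational drugs, each dosed in half-log steps down from near clinical Cmax, or from 10 microM where Cmax was unknown.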

Setting [1] is: curve of first compound, second compound 0.1 µM.
Where [2] appears, read: curve of first compound, second compound 0.316 µM.
[3] abbreviates: curve of first compound, second compound 1 µM.
[4] abbreviates: curve of first compound, second compound 3.16 µM.
Where [5] appears, read: curve of first compound, second compound 10 µM.
Setting [6] is: second compound 0.1 µM, first compound 0.0316 µM.
Where [7] appears, read: second compound 0.1 µM, first compound 0.1 µM.
[8] abbreviates: second compound 0.1 µM, first compound 0.316 µM.
The mark [9] stands for this setting: second compound 0.1 µM, first compound 1 µM.
The mark [10] stands for this setting: second compound 0.1 µM, first compound 3.16 µM.
[11] abbreviates: second compound 0.1 µM, first compound 10 µM.
The mark [12] stands for this setting: second compound 0.316 µM, first compound 0.0316 µM.
Where [13] appears, read: second compound 0.316 µM, first compound 0.1 µM.
Where [14] appears, read: second compound 0.316 µM, first compound 0.316 µM.
Setting [15] is: second compound 0.316 µM, first compound 1 µM.
The mark [16] stands for this setting: second compound 0.316 µM, first compound 3.16 µM.
Setting [17] is: second compound 0.316 µM, first compound 10 µM.
[18] abbreviates: second compound 1 µM, first compound 0.0316 µM.
[19] abbreviates: second compound 1 µM, first compound 0.1 µM.
Setting [20] is: second compound 1 µM, first compound 0.316 µM.
The mark [21] stands for this setting: second compound 1 µM, first compound 1 µM.
[22] abbreviates: second compound 1 µM, first compound 3.16 µM.
Where [23] appears, read: second compound 1 µM, first compound 10 µM.
[24] abbreviates: second compound 3.16 µM, first compound 0.0316 µM.
The mark [25] stands for this setting: second compound 3.16 µM, first compound 0.1 µM.
Setting [26] is: second compound 3.16 µM, first compound 0.316 µM.
Setting [27] is: second compound 3.16 µM, first compound 1 µM.
Setting [28] is: second compound 3.16 µM, first compound 3.16 µM.
Setting [29] is: second compound 3.16 µM, first compound 10 µM.
Setting [30] is: second compound 10 µM, first compound 0.0316 µM.
The mark [31] stands for this setting: second compound 10 µM, first compound 0.1 µM.
[32] abbreviates: second compound 10 µM, first compound 0.316 µM.
The mark [33] stands for this setting: second compound 10 µM, first compound 1 µM.
The mark [34] stands for this setting: second compound 10 µM, first compound 3.16 µM.
[35] abbreviates: second compound 10 µM, first compound 10 µM.

The IC50 is the point on the concentration scale where inhibition reaches its midpoint. What is called viability, T/C is the ratio of treated to control.
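Wherever viability, T/C is given: percent of DMSO vehicle-treated spheroid viability set as 100%.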

In the case of `COc1cc(Nc2ncc3c(n2)-c2ccc(Cl)cc2C(c2c(F)cccc2OC)=NC3)ccc1C(=O)O` + Cc1cncc(-c2nc(NCCc3c[nH]c4ccccc34)c3ncn(C(C)C)c3n2)c1, the IC50 under setting [1] is 943 nM; the concentration for half-maximal inhibition (IC50) under setting [2] was found to be 2150 nM; the concentration for half-maximal inhibition (IC50) under setting [3] is > 10000 nM; the IC50 under setting [4] stood at 10000 nM; the half-inhibitory concentration (IC50) under setting [5] was < 31.6 nM. The viability, T/C under setting [6] is 81.9%; the viability, T/C under setting [7] was 70.1%; the viability, T/C under setting [8] was 69.6%; the viability, T/C under setting [9] was 43.9%; the viability, T/C under setting [10] was 53.1%; the viability, T/C under setting [11] was 49.9%. The viability, T/C runs as follows: under setting [12], 95%; under setting [13], 66.4%; under setting [14], 68%; under setting [15], 41.1%; under setting [16], 53.4%; under setting [17], 47.7%. The viability, T/C was 85.3% under setting [18]; 82.7% under setting [19]; 75.2% under setting [20]; 63% under setting [21]; 50.3% under setting [22]; 51.5% under setting [23]. Moreover, the viability, T/C runs as follows: under setting [24], 80.5%; under setting [25], 77.2%; under setting [26], 72.8%; under setting [27], 44.8%; under setting [28], 58.6%; under setting [29], 62.1%. For the same compound, the viability, T/C was 11.1% under setting [30]; 11.8% under setting [31]; 10.3% under setting [32]; 9.55% under setting [33]; 9.44% under setting [34]; 17% under setting [35].
For `Nc1ncn(C2CC(O)C(CO)O2)c(=O)n1` (stereo not drawn), the viability, T/C was 111% and 99.4% and 104% (compound 0.00316 µM); 94.1% and 108% and 112% (compound 0.01 µM); 108% and 95.7% and 101% (compound 0.0316 µM); 95.2% and 101% and 82.9% (compound 0.1 µM); 87.2% and 88.8% and 84.9% (compound 0.316 µM); 79.4% and 79.5% and 76.8% (compound 1 µM). Also, for the setting “curve of compound”, the concentration for half-maximal inhibition (IC50) is > 1000 nM.
`CCN(c1cc(-c2ccc(CN3CCOCC3)cc2)cc(C(=O)NCc2c(C)cc(C)[nH]c2=O)c1C)C1CCOCC1`: the viability, T/C by setting is: (compound 0.00949 µM) 108% and 104% and 103%; (compound 0.03 µM) 116% and 114% and 95.3%; (compound 0.0949 µM) 120% and 111% and 97.5%; (compound 0.3 µM) 87.1% and 95.9% and 103%; (compound 0.949 µM) 98.3% and 89% and 90%; (compound 3 µM) 101% (2×) and 87.2%. In addition, the IC50 (curve of compound) is > 3000 nM.
With `CC1COCCN1c1cc(C2(S(C)(=N)=O)CC2)nc(-c2ccnc3[nH]ccc23)n1` (stereo not drawn) + Cc1ccccc1N=Nc1ccc(NC(=O)c2ccnn2C)c(C)c1, the half-inhibitory concentration (IC50) reads like this: under setting [1], 2100 nM; under setting [2], 2360 nM; under setting [3], 2140 nM; under setting [4], 1550 nM; under setting [5], 2750 nM. The viability, T/C reads like this: under setting [6], 102%; under setting [7], 126%; under setting [8], 105%; under setting [9], 70.1%; under setting [10], 38.7%; under setting [11], 35.5%. The viability, T/C is 111% under setting [12]; 115% under setting [13]; 97.2% under setting [14]; 76.2% under setting [15]; 39.5% under setting [16]; 30.9% under setting [17]. For the same compound, the viability, T/C is 95.2% under setting [18]; 106% under setting [19]; 90.5% under setting [20]; 71.6% under setting [21]; 38.8% under setting [22]; 29.2% under setting [23]. The viability, T/C under setting [24] is 76.4%; the viability, T/C under setting [25] was 116%; the viability, T/C under setting [26] is 95.8%; the viability, T/C under setting [27] was 60.4%; the viability, T/C under setting [28] is 35.5%; the viability, T/C under setting [29] was 27.4%. Besides, the viability, T/C by setting is: under setting [30], 109%; under setting [31], 97.1%; under setting [32], 98.5%; under setting [33], 75.8%; under setting [34], 45.8%; under setting [35], 38.2%.
Regarding `COc1ccc([C@@H](O)c2cc(-c3ncnc4cc(N5CCOCC5)ccc34)c(F)cc2Cl)nn1` + Cc1cncc(-c2nc(NCCc3c[nH]c4ccccc34)c3ncn(C(C)C)c3n2)c1, the concentration for half-maximal inhibition (IC50) is, setting by setting: under setting [1], 4410 nM; under setting [2], 2820 nM; under setting [3], 2820 nM; under setting [4], 1940 nM; under setting [5], < 31.6 nM. For the same compound, the viability, T/C is 88% under setting [6]; 93.3% under setting [7]; 93.2% under setting [8]; 68.5% under setting [9]; 57.8% under setting [10]; 38.4% under setting [11]. Further, the viability, T/C under setting [12] was 109%; the viability, T/C under setting [13] was 106%; the viability, T/C under setting [14] is 86.2%; the viability, T/C under setting [15] is 68.4%; the viability, T/C under setting [16] was 48%; the viability, T/C under setting [17] is 36.6%. The viability, T/C under setting [18] was 84.1%; the viability, T/C under setting [19] was 94.5%; the viability, T/C under setting [20] was 118%; the viability, T/C under setting [21] was 96.7%; the viability, T/C under setting [22] is 44.9%; the viability, T/C under setting [23] is 33.9%. For the same compound, the viability, T/C reads like this: under setting [24], 76.8%; under setting [25], 98.2%; under setting [26], 71.1%; under setting [27], 54.7%; under setting [28], 50.7%; under setting [29], 31.9%. Also, the viability, T/C reads like this: under setting [30], 9.83%; under setting [31], 8.38%; under setting [32], 6.49%; under setting [33], 8.45%; under setting [34], 9.55%; under setting [35], 13.7%.
`Cn1ncnc1C1c2n[nH]c(=O)c3cc(F)cc(c23)NC1c1ccc(F)cc1` (stereo not drawn): the viability, T/C is 104% and 93.7% and 94.2% (compound 0.000316 µM); 117% and 105% and 102% (compound 0.001 µM); 93.1% and 104% (2×) (compound 0.00316 µM); 91.7% and 102% and 105% (compound 0.01 µM); 97% and 97.8% and 98.7% (compound 0.0316 µM); 82% and 81.5% and 75.4% (compound 0.1 µM). In addition, the IC50 (curve of compound) was > 100 nM.
Take `CC1COCCN1c1cc(-c2ccnn2C)c2ccnc(-c3ccn[nH]3)c2n1` (stereo not drawn): the viability, T/C runs as follows: (compound 0.00316 µM) 93% and 95.6% and 116%; (compound 0.01 µM) 92.2% and 102% and 116%; (compound 0.0316 µM) 82.7% and 80.5% and 89%; (compound 0.1 µM) 47.8% and 48.9% and 65%; (compound 0.316 µM) 30.6% and 29.8% and 41.7%; (compound 1 µM) 27.8% and 28.6% and 29.4%. Besides, the half-inhibitory concentration (IC50) (curve of compound) is 93.2 nM and 92.7 nM and 202 nM.
With `COc1cc(Nc2ncc3c(n2)-c2ccc(Cl)cc2C(c2c(F)cccc2OC)=NC3)ccc1C(=O)O` + Cc1ccccc1N=Nc1ccc(NC(=O)c2ccnn2C)c(C)c1, the IC50 is > 10000 nM under setting [1]; > 10000 nM under setting [2]; > 10000 nM under setting [3]; 3160 nM under setting [4]; > 10000 nM under setting [5]. For the same compound, the viability, T/C reads like this: under setting [6], 87.8%; under setting [7], 71.2%; under setting [8], 76%; under setting [9], 48.9%; under setting [10], 49.6%; under setting [11], 51.5%. Besides, the viability, T/C by setting is: under setting [12], 79.8%; under setting [13], 68.1%; under setting [14], 68.7%; under setting [15], 60.6%; under setting [16], 52.6%; under setting [17], 54.1%. Besides, the viability, T/C under setting [18] was 79.5%; the viability, T/C under setting [19] was 69.3%; the viability, T/C under setting [20] was 60.6%; the viability, T/C under setting [21] is 48.7%; the viability, T/C under setting [22] was 52.6%; the viability, T/C under setting [23] was 60.1%. Moreover, the viability, T/C is, setting by setting: under setting [24], 64.7%; under setting [25], 64.5%; under setting [26], 69.2%; under setting [27], 49.2%; under setting [28], 54.9%; under setting [29], 57.3%. The viability, T/C was 90.6% under setting [30]; 84.8% under setting [31]; 85.5% under setting [32]; 74.2% under setting [33]; 75.4% under setting [34]; 70.3% under setting [35].
